Measurements as given in patent US20230286983A1 (4E Therapeutics, Inc., priority 2020, published 2023).
pIC50: −log10 of the molar value. Where “and” joins values, the source holds several entries; their conditions need not be identical. Equal entries are not always repeated. Where two headings read alike, the source gives them in different places.

Experiments:
MNK1 = MNK1 (Homo sapiens, UniProt Q9BUB5); assay: MNK1 substrate phosphorylation assay; format: biochemical; settings: recombinant human kinase
MNK2 = MNK2 (Homo sapiens, UniProt Q9HBH9); assay: MNK2 substrate phosphorylation assay; format: biochemical; settings: recombinant human kinase
[1] = tested on: eIF4E phosphorylation at Serine 209 in the human embryonic kidney (HEK) 293 cell line; assay: eIF4E phosphorylation in HEK 293 cells (fluorescent plate reader); format: cell-based; settings: Homo sapiens, HEK293, 2 h, eIF4E phosphorylation at Serine 209, 2 hours exposure
Outline: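 HEK-293 cells were treated with compound for 2 h, then methanol-fixed and Triton-permeabilized. Ser209 phospho-eIF4E was stained with primary antibody (1:2000, overnight) and an Alexa Fluor 488 secondary. Fluorescence was normalized to DAPI, and IC50 was fitted from concentration-response data.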

[2] = Brain vs plasma concentration, 4ET-03-009 at 10 mg/kg; format: in vivo, mice; settings: 10 mg/kg oral, 2 hours after dosing; for concentration at 2 hours: oral, 10 mg/kg
Protocol: In separate mice administered the same therapy, brain tissue was harvested 2 hours after dosing and brain concentration of the MNK inhibitor was measured by homogenizing brain tissue followed by LC-MS/MS analysis. Plasma concentration was measured as described above.

[3] = Pharmacokinetic study, 4ET-03-009 at 20 mg/kg oral; format: in vivo, CD-1 male mice; settings: for AUCinf/D / Cmax/D: dose normalized; for concentration at 0.083 hours / concentration at 0.25 hours / concentration at 0.5 hours / concentration at 1 hours / concentration at 2 hours / concentration at 4 hours / concentration at 6 hours / concentration at 8 hours / concentration at 24 hours: oral
Protocol: Compound 4ET-03-009 was dissolved in a 10% dimethylacetamide (DMA)/3000 polyethylene glycol (PEG) 300/400% propylene glycol (PG)/200% water solvent. […] Plasma was collected at indicated timepoints and plasma concentration of compound 4ET-03-009 was measured using liquid chromatography-mass spectrometry/mass spectrometry (LC-MS/MS). Results are presented in FIG. 1 and Tables 3, 4, and 5.
Compound 4ET-03-009 was dissolved in a 10% dimethylacetamide (DMA)/30% polyethylene glycol (PEG) 300/40% propylene glycol (PG)/20% water solvent. Dosing and assay were performed as described in Biological Example 2. Results are presented in FIG. 3 and Tables 7, 8, and 9, below.

P-gp (human MDR1, ABCB1) = assay: MDCK-MDR1 permeability (blood brain barrier permeability); format: in vitro ADME, Canine; settings: dog
[4] = male, CD-1, mouse, plasma, po, 20 mg/kg, Mean (n = 3)
[5] = male, CD-1, mouse, plasma, po, 20 mg/kg, individual animals

MNK1, sequence (Q9BUB5 whole entry): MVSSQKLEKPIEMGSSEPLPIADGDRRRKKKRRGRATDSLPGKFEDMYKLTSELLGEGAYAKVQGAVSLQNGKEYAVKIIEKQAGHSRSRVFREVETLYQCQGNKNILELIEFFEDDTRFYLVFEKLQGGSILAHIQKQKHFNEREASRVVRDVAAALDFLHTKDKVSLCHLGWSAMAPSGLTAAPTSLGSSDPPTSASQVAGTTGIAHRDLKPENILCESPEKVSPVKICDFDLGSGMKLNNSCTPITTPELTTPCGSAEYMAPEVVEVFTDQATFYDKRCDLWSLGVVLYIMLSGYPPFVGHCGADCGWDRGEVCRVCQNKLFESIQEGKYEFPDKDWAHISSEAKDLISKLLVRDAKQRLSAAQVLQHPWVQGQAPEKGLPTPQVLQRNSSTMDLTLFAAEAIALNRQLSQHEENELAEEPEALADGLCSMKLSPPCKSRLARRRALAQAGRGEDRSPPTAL
MNK2, sequence (Q9HBH9 whole entry): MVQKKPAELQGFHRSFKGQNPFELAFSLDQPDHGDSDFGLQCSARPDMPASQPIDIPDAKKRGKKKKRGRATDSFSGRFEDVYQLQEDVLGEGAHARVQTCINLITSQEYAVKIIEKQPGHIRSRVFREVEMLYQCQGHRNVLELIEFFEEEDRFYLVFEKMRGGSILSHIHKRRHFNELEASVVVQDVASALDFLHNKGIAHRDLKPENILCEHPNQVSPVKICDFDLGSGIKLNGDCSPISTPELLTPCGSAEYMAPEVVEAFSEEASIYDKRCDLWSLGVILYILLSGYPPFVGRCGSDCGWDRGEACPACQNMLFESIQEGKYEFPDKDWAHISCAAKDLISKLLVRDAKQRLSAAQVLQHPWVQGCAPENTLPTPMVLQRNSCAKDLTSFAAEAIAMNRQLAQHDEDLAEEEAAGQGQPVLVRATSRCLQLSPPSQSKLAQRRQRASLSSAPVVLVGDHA

Q: Which results are given for `Cc1cc(Nc2cc(NC(=O)C3CC3)ncn2)c(=O)n2c1C(=O)NC21CCOCC1` [Compound 4ET-03-009, N-(6-((8-Methyl-1,5-dioxo-1,2′,3′,5,5′,6′-hexahydro-2H-spiro[imidazo[1,5-a]pyridine-3,4′-pyran]-6-yl)amino)pyrimidin-4-yl)cyclopropanecarboxamide]?
A: pIC50 (MNK1): 7.50; pIC50 (MNK2): 8.59; pIC50 [1]: 8.77; brain entry [2]: enters the brain very poorly; Tissue Homogenate Conc. n = 3 ([2]; Brain, individual): 5.5 ng/mL and 7.28 ng/mL; Plasma Conc. n = 3 ([2]; Plasma, individual): 292 ng/mL and 337 ng/mL; concentration at 2 hours ([2]; CD-1, mouse, brain homogenate, Brain, individual, read-out: Tissue Homogenate Conc. n = 3): 7.67 ng/mL; concentration at 2 hours ([2]; CD-1, mouse, brain homogenate, Brain, read-out: Tissue Homogenate Conc. Mean): 6.82 ng/mL; concentration at 2 hours ([2]; CD-1, mouse, brain, Brain, read-out: Mean Tissue): 27.3 ng/g; Kp at 2 hours ([2]; CD-1, mouse, brain/plasma, Brain, read-out: Mean Tissue/Plasma Conc. Ratio): 0.083; concentration at 2 hours ([2]; CD-1, mouse, plasma, Plasma, individual, read-out: Plasma Conc. n = 3): 357 ng/mL; concentration at 2 hours ([2]; CD-1, mouse, plasma, Plasma, read-out: Plasma Conc. Mean): 329 ng/mL; abnormal clinical symptoms during the study [3]: No abnormal clinical symptoms were observed; Plasma Conc. (per mouse n = 3) ([3]; 0.083 hours): 384 ng/mL and 304 ng/mL; Plasma Conc. (per mouse n = 3) ([3]; 0.25 hours): 529 ng/mL and 396 ng/mL; Plasma Conc. (per mouse n = 3) ([3]; 0.5 hours): 607 ng/mL and 497 ng/mL; Plasma Conc. (per mouse n = 3) ([3]; 1 hours): 561 ng/mL and 448 ng/mL; Plasma Conc. (per mouse n = 3) ([3]; 2 hours): 372 ng/mL and 286 ng/mL; Plasma Conc. (per mouse n = 3) ([3]; 4 hours): 144 ng/mL and 135 ng/mL; Plasma Conc. (per mouse n = 3) ([3]; 6 hours): 71.3 ng/mL and 58.7 ng/mL; Plasma Conc. (per mouse n = 3) ([3]; 8 hours): 51.4 ng/mL and 41.5 ng/mL; Plasma Conc. (per mouse n = 3) ([3]; 24 hours): 2.01 ng/mL and 1.89 ng/mL; Tlast ([3]; Mean (n = 3)): 24.0 h; t1/2 ([3]; Mean (n = 3)): 3.55 h; AUCinf/D ([3]; Mean (n = 3)): 113 kg·h/kL; Cmax/D ([3]; Mean (n = 3)): 29.5 kg/kL; AUC0-8 hours ([3]; individual animals): 1847 ng·h/mL and 1501 ng·h/mL; AUCinf ([3]; individual animals): 2284 ng·h/mL and 1858 ng·h/mL; AUClast ([3]; individual animals): 2274 ng·h/mL and 1848 ng·h/mL; Clast ([3]; individual animals): 2.01 ng/mL and 1.89 ng/mL; Cmax ([3]; individual animals): 607 ng/mL and 497 ng/mL; MRTinf ([3]; individual animals): 3.53 h; Tlast ([3]; individual animals): 24.0 h; t1/2 ([3]; individual animals): 3.47 h and 3.61 h; AUCinf/D ([3]; individual animals): 131 kg·h/kL and 114 kg·h/kL and 92.9 kg·h/kL; Cmax/D ([3]; individual animals): 33.3 kg/kL and 30.4 kg/kL and 24.9 kg/kL; Tmax ([3]; male, CD-1, mouse, plasma, individual animals): 0.5 h; concentration at 0.083 hours ([3]; male, CD-1, mouse, plasma, 20 mg/kg, 0.083 hours, mean n = 3, read-out: Plasma Conc. Mean): 331 ng/mL; concentration at 0.083 hours ([3]; male, CD-1, mouse, plasma, 20 mg/kg, 0.083 hours, read-out: Plasma Conc. (per mouse n = 3)): 304 ng/mL; concentration at 0.25 hours ([3]; male, CD-1, mouse, plasma, 20 mg/kg, 0.25 hours, mean n = 3, read-out: Plasma Conc. Mean): 530 ng/mL; concentration at 0.25 hours ([3]; male, CD-1, mouse, plasma, 20 mg/kg, 0.25 hours, read-out: Plasma Conc. (per mouse n = 3)): 665 ng/mL; concentration at 0.5 hours ([3]; male, CD-1, mouse, plasma, 20 mg/kg, 0.5 hours, mean n = 3, read-out: Plasma Conc. Mean): 590 ng/mL; concentration at 0.5 hours ([3]; male, CD-1, mouse, plasma, 20 mg/kg, 0.5 hours, read-out: Plasma Conc. (per mouse n = 3)): 666 ng/mL; concentration at 1 hours ([3]; male, CD-1, mouse, plasma, 20 mg/kg, 1 hours, mean n = 3, read-out: Plasma Conc. Mean): 553 ng/mL; concentration at 1 hours ([3]; male, CD-1, mouse, plasma, 20 mg/kg, 1 hours, read-out: Plasma Conc. (per mouse n = 3)): 649 ng/mL; concentration at 2 hours ([3]; male, CD-1, mouse, plasma, 20 mg/kg, 2 hours, mean n = 3, read-out: Plasma Conc. Mean): 355 ng/mL; concentration at 2 hours ([3]; male, CD-1, mouse, plasma, 20 mg/kg, 2 hours, read-out: Plasma Conc. (per mouse n = 3)): 408 ng/mL; concentration at 4 hours ([3]; male, CD-1, mouse, plasma, 20 mg/kg, 4 hours, mean n = 3, read-out: Plasma Conc. Mean): 153 ng/mL; concentration at 4 hours ([3]; male, CD-1, mouse, plasma, 20 mg/kg, 4 hours, read-out: Plasma Conc. (per mouse n = 3)): 180 ng/mL; concentration at 6 hours ([3]; male, CD-1, mouse, plasma, 20 mg/kg, 6 hours, mean n = 3, read-out: Plasma Conc. Mean): 74.5 ng/mL; concentration at 6 hours ([3]; male, CD-1, mouse, plasma, 20 mg/kg, 6 hours, read-out: Plasma Conc. (per mouse n = 3)): 93.6 ng/mL; concentration at 8 hours ([3]; male, CD-1, mouse, plasma, 20 mg/kg, 8 hours, mean n = 3, read-out: Plasma Conc. Mean): 50.2 ng/mL; concentration at 8 hours ([3]; male, CD-1, mouse, plasma, 20 mg/kg, 8 hours, read-out: Plasma Conc. (per mouse n = 3)): 57.6 ng/mL; concentration at 24 hours ([3]; male, CD-1, mouse, plasma, 20 mg/kg, 24 hours, mean n = 3, read-out: Plasma Conc. Mean): 2.22 ng/mL; concentration at 24 hours ([3]; male, CD-1, mouse, plasma, 20 mg/kg, 24 hours, read-out: Plasma Conc. (per mouse n = 3)): 2.75 ng/mL; concentration at 24 hours ([3]; male, CD-1, mouse, plasma, 20 mg/kg, Mean (n = 3), read-out: Clast): 2.22 ng/mL; concentration at 24 hours ([3]; male, CD-1, mouse, plasma, 20 mg/kg, individual animals, read-out: Clast): 2.75 ng/mL; AUC(0-inf) [3, 4]: 2260 ng·h/mL; MRT inf [3, 4]: 3.59 h; half-life [3, 4]: 3.6 h; AUC(0-t) ([3]; male, CD-1, mouse, plasma, po, 20 mg/kg, Mean (n = 3), read-out: AUC0-8 hours): 1830 ng·h/mL; AUC(0-t) ([3]; male, CD-1, mouse, plasma, po, 20 mg/kg, Mean (n = 3), read-out: AUClast): 2240 ng·h/mL; Cmax ([3]; male, CD-1, mouse, plasma, po, 20 mg/kg, Mean (n = 3), read-out: Cmax): 590 ng/mL; AUC(0-inf) ([3]; male, CD-1, mouse, plasma, po, 20 mg/kg, for the study): 2260 ng·h/mL; Cmax ([3]; male, CD-1, mouse, plasma, po, 20 mg/kg, for the study, read-out: Cmax): 1400 nM; AUC(0-inf) [3, 5]: 2630 ng·h/mL; MRT inf [3, 5]: 3.63 h; half-life [3, 5]: 3.58 h; AUC(0-t) ([3]; male, CD-1, mouse, plasma, po, 20 mg/kg, individual animals, read-out: AUC0-8 hours): 2130 ng·h/mL; AUC(0-t) ([3]; male, CD-1, mouse, plasma, po, 20 mg/kg, individual animals, read-out: AUClast): 2610 ng·h/mL; Cmax ([3]; male, CD-1, mouse, plasma, po, 20 mg/kg, individual animals, read-out: Cmax): 666 ng/mL; efflux ratio at 5 μM (P-gp (human MDR1, ABCB1); MDCK-MDR1, 5 μM, read-out: Efflux ratio (ratio B-A/A-B)): 4.6; Papp A→B at 5 μM (P-gp (human MDR1, ABCB1); MDCK-MDR1, Apical to basolateral transport, 5 μM, average of two experiments): 5.4 ×10⁻⁶ cm/s; Papp B→A at 5 μM (P-gp (human MDR1, ABCB1); MDCK-MDR1, Basolateral to apical transport, 5 μM, average of two experiments): 25 ×10⁻⁶ cm/s
